We go through 7 compounds from US7048907B2, “Synthesis, compositions and methods for the measurement of the concentration of stable-isotope labeled compounds in life forms and life form excretory products” (BioPhysics Assay Laboratory, Inc., priority 2001, dated 2006).

Data set [1] is described as follows: Assay of chelate on carboxymethyl (CM) Sephadex column (chelate formation, charge). In kind it is physicochemical. As to the method: Preparation of carboxymethyl sephadex column. To two 10 ml plastic pipets cut off at the 3 ml mark and plugged with glass wool at the bottom add enough slurry to form a 2 ml volume of the CM sephadex. Wash the packed resin with 6 ml of 1 M Tris buffer pH 7.5, and 6 ml of 0.01M Tris buffer pH 7.5. […] Collect the eluants of fractions as follows. Fraction 1.3 ml of 0.01 M Tris buffer pH 7.5 and allow to drain into column. Fraction 2.1 ml of sample (gadolinium-DTPA or gadolinium chloride) and allow to drain into column. Apply 3 ml of 0.01 M Tris buffer pH 7.5 and allow to drain into column. Fraction 3.3 ml of 0.01M Tris buffer pH 7.5 and allow to drain into column. Dry all fractions at 70° C. for 76 hours, dissolve in 1 ml of 1 mM HCl and assay by atomic absorption.
(§1) Preparation of carboxymethyl Sephadex column. To two 10 ml plastic pipets which had been cut off at the 3 ml mark and plugged with glass wool at the bottom, enough slurry was added to form a 2 ml volume of the CM Sephadex. The packed resin was wash with 6 ml of 1 M Tris buffer pH 7.5, and 6 ml of 0.01M Tris buffer pH 7.5. […] Fractions were applied as follows. Fraction 1. Three ml of 0.01 M Tris buffer pH 7.5 and allow to drain into column. Fraction 2. One ml of sample (samarium-DTPA or samarium chloride) and allow to drain into column. Apply 3 ml of 0.01 M Tris buffer pH 7.5 and allow to drain into column. Fraction 3. Three ml of 0.01M Tris buffer pH 7.5 and allow to drain into column. Collect the eluant of fractions 1 through 3. Fraction 4. Column and contents.
as §1, with “were” for “had been”, “washed” for “wash”, “(lanthanum-DTPA” for “(samarium-DTPA”, “lanthanum” for “samarium”
as §1, with “were” for “had been”, “washed” for “wash”, “(Europium-DTPA” for “(samarium-DTPA”, “Europium” for “samarium”
Preparation of carboxymethyl sephadex column. To a 10 ml plastic pipet cut off at the 3 ml mark and plugged with glass wool at the bottom, add enough slurry to form a 2 ml volume of the CM sephadex. Wash the packed resin with 6 ml of 1 M Tris buffer pH 7.5, and 6 ml of 0.01M Tris buffer pH 7.5. […] Apply fractions as follows. Fraction 1. One ml of sample A and allow to drain into column.

Data set [2] can be described thus: Stability of chelates to autoclaving (CM-Sephadex assay). In kind it is physicochemical. Conditions: for % of total / dpm: autoclaved 30 minutes at 121° C. As to the method: A sample comprising 5 ml of Sm-DTPA, La-DTPA, and Eu-DTPA prepared in Examples 9, 10, and 11 were placed in 10 ml glass bottles, each capped with a grey butyl rubber cap, and the caps were crimped. Samples were autoclaved for 30 minutes at 121° C.
Five ml of each of Sm-DOTA, La-DOTA, and Eu-DOTA prepared in Examples 13, 14, and 15 were placed in 10 ml glass bottles capped with a grey butyl rubber cap and crimped. Samples were autoclaved for 30 minutes at 121° C. Samples were allowed to cool to room temperature and were assayed as described in Examples 25.

The nature of data set [3]: Stability of chelates in rat serum (CM-Sephadex assay, serum binding). Conditions: 24 hours in rat serum at room temperature.
The nature of data set [4]: Kinetics of blood depletion and urine accumulation of chelates in the rat. It is filed as in vivo. Conditions: ^99mTc-DTPA, Gd-DTPA and Sm-DTPA simultaneously administered (Example 30), average of three rats. As for the experimental part: One half ml of Sm-DTPA (0.01 mg/kg), dissolved in saline (pH 7), is injected into the tail vein of three rats. Samples of blood are obtained at 10, 30 and 60 minutes following injection and analyzed for Sm-DTPA by neutron activation. The percent of starting amount of the Sm-DTPA at each time interval is presented in Table 18 (last column on right). Similarly, the accumulation of Sm-DTPA in the rat urine at two times is shown in the last column of Table 18.
One half ml of Technetium-99m-DTPA (1 millicurie), Gd-DTPA (0.05 mg/kg), and Sm-DTPA (0.01 mg/kg) are each dissolved in saline (pH 7), and are injected simultaneously into the tail vein of three rats. Samples of blood are obtained at 10, 30 and 60 minutes following injection and analyzed for ^99mTc-DTPA (gamma counting), Gd-DTPA (T1 relaxation) and Sm-DTPA (neutron activation).
One half ml of Sm-DTPA, La-DTPA and Eu-DTPA (each 0.01 mg/kg), dissolved in saline (pH 7) are injected simultaneously into the tail vein of three rats. Samples of blood are obtained at 10, 30 and 60 minutes following injection and analyzed for each element by neutron activation.
Samples of Sm-DTPA, La-DTPA and Eu-DTPA (0.5 ml; 0.01 mg/kg), each dissolved in saline (pH 7), are injected sequentially at 0, 20, and 40 minutes into the tail vein of three rats. Samples of blood are obtained at 10, 30 and 60 min following each injection and analyzed for each element by neutron activation.

The mark [5] stands for this setting: DOTA chelates, Fraction 1: 1 ml sample diluted 1:10 then 3 ml 0.01M Tris pH 7.5 (eluate).
Where [6] appears, read: DOTA chelates, Fraction 2: further 3 ml 0.01M Tris pH 7.5.
Where [7] appears, read: DOTA chelates, Fraction 3: column and contents (retained).
[8] abbreviates: Fraction 1: sample diluted 1:10 then 2-3 ml 0.01M Tris pH 7.5 (eluate).
[9] abbreviates: Fraction 2: 3 ml 0.01M Tris pH 7.5.
[10] abbreviates: Fraction 3: column and contents (retained).
[11] abbreviates: Fraction 1: 0.2 ml sample then 2 ml 0.01M Tris pH 7.5 (eluate).
[12] abbreviates: Fraction 1: 3 ml 0.01M Tris pH 7.5 before sample.
Where [13] appears, read: Fraction 2: 1 ml sample then 3 ml 0.01M Tris pH 7.5 (eluate).
The mark [14] stands for this setting: Fraction 3: further 3 ml 0.01M Tris pH 7.5.
Where [15] appears, read: Fraction 4: column and contents (retained).

`O=C([O-])CN1CCN(CC(=O)[O-])CCN(CC(=O)[O-])CCN(CC(=O)[O-])CC1.[Eu+3]` [Eu-DOTA]: the “% eluted from the CM-Sephadex column” value in data set [1] is 100%. Moreover, the “% of total” value is on record as 100 % of total in data set [1] (setting [5]); <1 % of total in data set [1] (setting [6]); 0 % of total in data set [1] (setting [7]); 100 % of total in data set [2] (setting [8]); <1 % of total in data set [2] (setting [9]); 0 % of total in data set [2] (setting [10]). Moreover, the dpm in data set [1] (setting [5]) was 391454 dpm; in data set [1] (setting [6]), 132 dpm; in data set [1] (setting [7]), 0 dpm; in data set [2] (setting [8]), 366651 dpm; in data set [2] (setting [9]), 1226 dpm; in data set [2] (setting [10]) it was 0 dpm. For the same compound, the “% eluted from CM-Sephadex column following autoclaving” value in data set [2] was determined as 100%.
As for `[Cl][Eu]([Cl])[Cl]` [Europium chloride, reference compound], the “% of total” value was 42 % of total in data set [3] (setting [11]); 5 % of total in data set [3] (setting [9]); 52 % of total in data set [3] (setting [10]); 0 % of total in data set [1] (setting [12]); 0 % of total in data set [1] (setting [13]); 0 % of total in data set [1] (setting [14]). The “% of total” value in data set [1] (setting [15]) was 100 % of total. Also, the dpm in data set [3] (setting [11]) is listed as 2378 dpm; in data set [3] (setting [9]) it was 291 dpm; in data set [3] (setting [10]) it was 2940 dpm; in data set [1] (setting [12]) it was 0 dpm; in data set [1] (setting [13]), 0 dpm; in data set [1] (setting [14]), 0 dpm. For the same compound, the dpm in data set [1] (setting [15]) is 21244 dpm. Moreover, the “% of unchelated ion retained on the column” value (“% of unchelated ion retained” for short) in data set [1] was 100%.
Turning to `[Cl][Gd]([Cl])[Cl]` [Gadolinium chloride, reference compound], the “% of unchelated ion retained” value in data set [1] turned out to be 100%. Moreover, the “% of total” value in data set [1] (setting [12]), in data set [1] (setting [13]) and in data set [1] (setting [14]) was 0 % of total in each case.
`O=C([O-])CN1CCN(CC(=O)[O-])CCN(CC(=O)[O-])CCN(CC(=O)[O-])CC1.[La+3]` [La-DOTA]: the “% eluted from the CM-Sephadex column” value in data set [1] was 100%. For the same compound, the “% of total” value in data set [1] (setting [5]) is 97 % of total; in data set [1] (setting [6]), 3 % of total; in data set [1] (setting [7]), 0 % of total; in data set [2] (setting [8]) it was 100 % of total; in data set [2] (setting [9]) it was <1 % of total; in data set [2] (setting [10]), 0 % of total. The dpm in data set [1] (setting [5]) was determined as 410040 dpm; in data set [1] (setting [6]) it was 11681 dpm; in data set [1] (setting [7]), 0 dpm; in data set [2] (setting [8]) it was 400045 dpm; in data set [2] (setting [9]), 11 dpm; in data set [2] (setting [10]), 0 dpm. Besides, the “% eluted from CM-Sephadex column following autoclaving” value in data set [2] stood at 100%.
For the compound `[Cl][La]([Cl])[Cl]` [Lanthanum chloride, reference compound], the “% of total” value in data set [3] (setting [11]) was 49 % of total; in data set [3] (setting [9]) it was 6 % of total; in data set [3] (setting [10]), 44 % of total; in data set [1] (setting [12]) it was 0 % of total; in data set [1] (setting [13]) it was 0 % of total; in data set [1] (setting [14]) it was 0 % of total. The “% of total” value in data set [1] (setting [15]) is reported as 100 % of total. Besides, the dpm in data set [3] (setting [11]) is 51651 dpm; in data set [3] (setting [9]), 6586 dpm; in data set [3] (setting [10]), 46450 dpm; in data set [1] (setting [12]), 0 dpm; in data set [1] (setting [13]), 0 dpm; in data set [1] (setting [14]), 0 dpm. Also, the “% of unchelated ion retained” value in data set [1] came to 100%.
Take `O=C([O-])CN1CCN(CC(=O)[O-])CCN(CC(=O)[O-])CCN(CC(=O)[O-])CC1.[Sm+3]` [Sm-DOTA]: in data set [1], the “% eluted from the CM-Sephadex column” value turned out to be 100%. Besides, the “% of total” value in data set [1] (setting [5]) is recorded as 98 % of total; in data set [1] (setting [6]) it was 2 % of total; in data set [1] (setting [7]), 0 % of total; in data set [2] (setting [8]), 98 % of total; in data set [2] (setting [9]), 2 % of total; in data set [2] (setting [10]), 0 % of total. In addition, the dpm in data set [1] (setting [5]) is given as 1429326 dpm; in data set [1] (setting [6]) it was 28850 dpm; in data set [1] (setting [7]), 0 dpm; in data set [2] (setting [8]) it was 1439622 dpm; in data set [2] (setting [9]) it was 27521 dpm; in data set [2] (setting [10]) it was 0 dpm. In addition, the “stability to autoclaving” value in data set [2] was “unstable product producing a mixture of Sm-DOTA and unchelated Sm^+3”.
Take “Technetium-99m-DTPA [^99mTc-DTPA, reference compound]”: the “Percent of initial injection, blood” value is given as 85% of initial injection in data set [4] (blood 10 min after i.v. injection), 63% of initial injection in data set [4] (blood 30 min) and 30% of initial injection in data set [4] (blood 60 min). Besides, the “Percent of initial injection, urine” value in data set [4] (urine 30 min) is recorded as 25% of initial injection; in data set [4] (urine 180 min), 92% of initial injection.
